Structures can show the parent of a compound that is named as a salt.

In this assay the target is Recombinant human JAK3 enzyme (JAK3 kinase region; Ala795-Ser1124) (Homo sapiens, UniProt P52333). Description: JAK3 Kinase Assay (Kinase-Glo luminescent, ATP consumption). As to conditions: read-out: Inhibition rate (%) of JAK3 kinase activity.
Recombinant human JAK3 enzyme (JAK3 kinase region; Ala795-Ser1124), sequence (P52333 795-1124): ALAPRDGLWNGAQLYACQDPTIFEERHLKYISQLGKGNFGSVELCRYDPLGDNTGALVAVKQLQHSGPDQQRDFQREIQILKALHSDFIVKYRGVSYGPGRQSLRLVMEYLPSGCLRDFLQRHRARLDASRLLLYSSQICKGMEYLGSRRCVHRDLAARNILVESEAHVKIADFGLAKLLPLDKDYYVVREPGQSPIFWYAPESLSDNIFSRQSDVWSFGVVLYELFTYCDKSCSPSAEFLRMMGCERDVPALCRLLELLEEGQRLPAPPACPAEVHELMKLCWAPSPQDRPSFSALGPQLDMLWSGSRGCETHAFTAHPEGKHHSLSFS
Experimental: Recombinant human JAK3 enzyme (JAK3 kinase region; Ala795-Ser1124) was purchased from Carna Biosciences, Inc.
The reaction was conducted in a kinase buffer (reaction volume: a total of 50 μl) containing 8 mM MOPS (pH 7.0), 0.2 mM EDTA, a test compound solution prepared to each concentration and 0.5 μg/ml JAK3 enzyme using a 96-well polystyrene plate (clear-bottom white-wall). […] After incubating them at room temperature for 2 hours, 50 μl of Kinase-Glo Luminescent Kinase Assay reagent (Promega) was added to each well, and further incubated at room temperature for 10 minutes. Using a chemiluminescence microplate reader MicroLumat LB96P (Berthold), chemiluminescence intensity was measured to quantitate the amount of ATP remaining after reaction. From the amount of ATP consumed in the phosphorylation reaction, the inhibition rate (%) of JAK3 kinase activity was determined.
As to `CS(=O)(=O)N1CCN(c2ccc(Nc3cc(NCc4cccc(F)c4F)c(C(N)=O)cn3)cc2)CC1` [Example 292, 4-[(2,3-difluorobenzyl)amino]-6-({4-[4-(methylsulfonyl)piperazin-1-yl]phenyl}amino)pyridine-3-carboxyamide], the inhibition at 0.1 µM turned out to be 84%.

Turning to `NC(=O)c1cnc(Nc2ccc(N3CCC(CCO)CC3)cc2)cc1NCc1cccc([N+](=O)[O-])c1` [Example 180, 6-({4-[4-(2-hydroxyethyl)piperidino]phenyl}amino)-4-[(3-nitrobenzyl)amino]pyridine-3-carboxyamide], the inhibition at 0.1 µM was determined as 63%.

For the compound `CC(C)N1CCN(c2ccc(Nc3cc(NCc4c(F)cccc4F)c(C(N)=O)cn3)cc2)CC1` [Example 153, 4-[(2,6-difluorobenzyl)amino]-6-({4-[4-(propan-2-yl)piperazin-1-yl]phenyl}amino)pyridine-3-carboxyamide], the inhibition at 0.1 µM was determined as 94%.

`NC(=O)c1cnc(Nc2ccc(N3CCC(C(=O)N(CCO)CCO)CC3)cc2)cc1NCc1ccccc1` [Example 177, 4-(benzylamino)-6-[(4-{4-[bis(2-hydroxyethyl)carbamoyl]piperidino}phenyl)amino]pyridine-3-carboxyamide]: the inhibition at 0.1 µM was 84%.

For the compound `CCN(CC)CC(=O)N1CCC(c2ccc(Nc3cc(NCc4ccccc4)c(C(N)=O)cn3)cc2)CC1` [Example 277, 4-(benzylamino)-6-({4-[1-(N,N-diethylglycyl)piperidin-4-yl]phenyl}amino)pyridine-3-carboxyamide], the inhibition at 0.1 µM was determined as 70%.

With `CS(=O)(=O)N1CCN(c2ccc(Nc3cc(NC4CCCCC4)c(C(N)=O)cn3)cc2)CC1` [Example 346, 4-cyclohexylamino-6-({4-[4-(methylsulfonyl)piperazin-1-yl]phenyl}amino)pyridine-3-carboxyamide], the inhibition at 1 µM is 72%.

Take `C[C@H]1COCCN1c1ccc(Nc2cc(NCc3ccccc3)c(C(N)=O)cn2)cc1` [Example 134, 4-(benzylamino)-6-({4-[(3S)-3-methylmorpholino]phenyl}amino)pyridine-3-carboxyamide]: the inhibition at 0.1 µM was found to be 83%.

Regarding `C[C@@H]1CN(c2ccc(Nc3cc(NCc4cc(F)ccc4F)c(C(N)=O)cn3)cc2)C[C@H](C)N1` [Example 142, 4-[(2,5-difluorobenzyl)amino]-6-({4-[(3R,5S)-3,5-dimethylpiperazin-1-yl]phenyl}amino) pyridine-3-carboxyamide], the inhibition at 0.1 µM worked out at 66%.

On to `CC(=O)N1CCCC1CNc1cc(Nc2ccc(N3CCOCC3)cc2)ncc1C(N)=O` (centres unmarked) [Example 360, 4-{[(1-acetylpyrrolidin-2-yl)methyl]amino}-6-[(4-morpholinophenyl)amino]pyridine-3-carboxyamide], for which the inhibition at 1 µM was found to be 57%.

In the case of `Cc1ccc(S(=O)(=O)n2cc(-c3cc(NCc4cc(F)cc(F)c4)c(C(N)=O)cn3)c3cccnc32)cc1` [Example 370, 4-[(3,5-difluorobenzyl)amino]-6-{1-[(4-methylphenyl)sulfonyl}-1H-pyrrolo[2,3-b]pyridin-3-yl}pyridine-3-carboxyamide], the inhibition at 1 µM came to 13%.

With `NC(=O)c1cnc(Nc2ccc(N3CCC(CCO)CC3)cc2)cc1NCc1cc(F)cc(F)c1` [Example 179], the inhibition at 0.1 µM is 78%.

Take `CC(C)N1CCN(c2ccc(Nc3cc(NCc4cccnc4)c(C(N)=O)cn3)cc2)CC1` [Example 356, 6-({4-[4-(propan-2-yl)piperazin-1-yl]phenyl}amino)-4-[(pyridin-3-ylmethyl)amino]pyridine-3-carboxyamide]: the inhibition at 1 µM came out at 92%.

With `N#CCC(=O)N1CCN(c2ccc(Nc3cc(NCc4cc(F)ccc4F)c(C(N)=O)cn3)cc2)CC1` [Example 265, 6-({4-[4-(cyanoacetyl)piperazin-1-yl]phenyl}amino)-4-[(2,5-difluorobenzyl)amino]pyridine-3-carboxyamide], the inhibition at 0.1 µM is 74%.

`Cc1ccccc1CNc1cc(Nc2ccc(N3CCC(O)CC3)cc2)ncc1C(N)=O` [Example 185, 4-[(2-methylbenzyl)amino]-6-{[4-(4-hydroxypiperidino)phenyl]amino}pyridine-3-carboxyamide]: the inhibition at 0.1 µM was 87%.

Consider `CCN(CC)CC(=O)N1CCN(c2ccc(Nc3cc(NCc4cc(F)cc(F)c4)c(C(N)=O)cn3)cc2)CC1` [Example 275, 6-({4-[4-(N,N-diethylglycyl)piperazin-1-yl]phenyl}amino)-4-[(3,5-difluorobenzyl)amino]pyridine-3-carboxyamide], for which the inhibition at 0.1 µM was found to be 96%.

For `CCN(CC)CC(=O)N1CCN(c2ccc(Nc3cc(NCc4ccccc4)c(C(N)=O)cn3)cc2)CC1` [Example 274, 4-(benzylamino)-6-({4-[4-(N,N-diethylglycyl)piperazin-1-yl]phenyl}amino)pyridine-3-carboxyamide], the inhibition at 0.1 µM was 79%.

With `NC(=O)c1cnc(Nc2ccc(N3CCOCC3)cc2)cc1NC1CCCCC1` [Example 345, 4-cyclohexylamino-6-[(4-morpholinophenyl)amino]pyridine-3-carboxyamide], the inhibition at 1 µM turned out to be 79%.

With `N#CCCN1CCN(c2ccc(Nc3cc(NCc4cc(F)cc(F)c4)c(C(N)=O)cn3)cc2)CC1` [Example 240, 6-({4-[4-(2-cyanoethyl)piperazin-1-yl]phenyl}amino)-4-[(3,5-difluorobenzyl)amino]pyridine-3-carboxyamide], the inhibition at 0.1 µM stood at 85%.

For the compound `Cc1cccc(CNc2cc(Nc3ccc(N4CCOCC4)cc3)ncc2C(N)=O)c1` [Example 77, 4-[(3-methylbenzyl)amino]-6-[(4-morpholinophenyl)amino]pyridine-3-carboxyamide], the inhibition at 0.1 µM was determined as 55%.

Take `C[C@@H]1CN(c2ccc(Nc3cc(NCc4ccccc4)c(C(N)=O)cn3)cc2)C[C@H](C)N1` [Example 136, 4-(benzylamino)-6-({4-[(3R,5S)-3,5-dimethylpiperazin-1-yl]phenyl}amino)pyridine-3-carboxyamide]: the inhibition at 0.1 µM was 80%.

For `CC(C)S(=O)(=O)Nc1ccc(Nc2cc(NCc3cc(F)cc(F)c3)c(C(N)=O)cn2)cc1` [Example 302, 4-[(3,5-difluorobenzyl)amino]-6-({4-[(propan-2-ylsulfonyl)amino]phenyl}amino)pyridine-3-carboxyamide], the inhibition at 0.1 µM came to 90%.

Consider `NC(=O)c1cnc(Nc2ccc(N3CCOCC3)cc2)cc1NCc1ccccn1` [Example 363, 6-[(4-morpholinophenyl)amino]-4-[(pyridin-2-ylmethyl)amino]pyridine-3-carboxyamide], for which the inhibition at 1 µM was 67%.

As for `NC(=O)c1cnc(Nc2ccc(N3CCOCC3)cc2)cc1NCC1CC1` [Example 362, 4-[(cyclopropylmethyl)amino]-6-[(4-morpholinophenyl)amino]pyridine-3-carboxyamide], the inhibition at 1 µM worked out at 40%.

On to `NC(=O)c1cnc(Nc2ccc(N3CCC(C(=O)NCCO)CC3)cc2)cc1NCc1ccccc1` [Example 176, 4-(benzylamino)-6-[(4-{4-[(2-hydroxyethyl)carbamoyl]piperidino}phenyl)amino]pyridine-3-carboxyamide], for which the inhibition at 0.1 µM was 86%.

With `NC(=O)c1cnc(Nc2ccc(N3CCOCC3)cc2)cc1NC1CCOc2ccccc21` (centres unmarked) [Example 351, 4-(3,4-dihydro-2H-1-benzopyran-4-ylamino)-6-[(4-morpholinophenyl)amino]pyridine-3-carboxyamide], the inhibition at 1 µM is 45%.

With `CCN(CC)C(=O)Nc1ccc(Nc2cc(NCc3ccccc3)c(C(N)=O)cn2)cc1` [Example 279, 4-(benzylamino)-6-({4-[(diethylcarbamoyl)amino]phenyl}amino)pyridine-3-carboxyamide], the inhibition at 0.1 µM was 59%.

Take `NC(=O)c1cnc(Nc2ccc(N3CCOCC3)cc2)cc1NCc1cccnc1` [Example 353, 6-[(4-morpholinophenyl)amino]-4-[(pyridin-3-ylmethyl)amino}pyridine-3-carboxyamide]: the inhibition at 1 µM amounted to 65%.

`CC(C)N1CCN(c2ccc(Nc3cc(NCc4ccccc4)c(C(N)=O)cn3)cc2)CC1` [Example 146, 4-(benzylamino)-6-({4-[4-(propan-2-yl)piperazin-1-yl]phenyl}amino)pyridine-3-carboxyamide]: the inhibition at 0.1 µM was 78%.

`NC(=O)c1cccc(CNc2cc(Nc3ccc(N4CCOCC4)cc3)ncc2C(N)=O)c1` [Example 115, 4-[(3-carbamoylbenzyl)amino]-6-[(4-morpholinophenyl)amino]pyridine-3-carboxyamide]: the inhibition at 0.1 µM was determined as 70%.

As for `NC(=O)c1cnc(Nc2ccc(N)cc2)cc1NCc1ccccc1` [Example 65, 6-[(4-aminophenyl)amino]-4-(benzylamino) pyridine-3-carboxyamide], the inhibition at 0.1 µM is 79%.

For the compound `NC(=O)c1cnc(Nc2ccc(N3CCOCC3)nc2)cc1NCc1ccccc1` [Example 373, 4-benzylamino-6-[(6-morpholinopyridin-3-yl)amino]pyridine-3-carboxyamide], the inhibition at 1 µM turned out to be 81%.

For `NC(=O)c1cnc(Nc2ccc(NC(=O)C3CCNCC3)cc2)cc1NCc1ccccc1` [Example 314, 4-(benzylamino)-6-({4-[piperidin-4-ylcarbonyl]amino]phenyl}amino)pyridine-3-carboxyamide hydrochloride], the inhibition at 0.1 µM came out at 60%.

With `NC(=O)c1cnc(Nc2ccc(N3CCCN(CCO)CC3)cc2)cc1NCc1ccccc1` [Example 245, 4-(benzylamino)-6-({4-[4-(2-hydroxyethyl)-1,4-diazepan-1-yl]phenyl}amino)pyridine-3-carboxyamide], the inhibition at 0.1 µM was determined as 62%.

For the compound `CC(C)N1CCN(c2cccc(Nc3cc(NCc4cc(F)cc(F)c4)c(C(N)=O)cn3)c2)CC1` [Example 155, 4-[(3,5-difluorobenzyl)amino]-6-({3-[4-(propan-2-yl)piperazin-1-yl]phenyl}amino)pyridine-3-carboxyamide], the inhibition at 0.1 µM stood at 59%.

For `CCCS(=O)(=O)Nc1ccc(Nc2cc(NCc3cc(F)cc(F)c3)c(C(N)=O)cn2)cc1` [Example 162, 4-[(3,5-difluorobenzyl)amino]-6-({4-[(propylsulfonyl)amino]phenyl}amino)pyridine-3-carboxyamide], the inhibition at 0.1 µM is 72%.

The values are drawn from patent US8575153B2 (Kowa Company, Ltd., priority 2008, dated 2013).
